According to US4933347A, “Diamidines and bis(imidazolines) for the treatment of and prophylaxis against pneumocystis carinii pneumonia” (University of North Carolina at Chapel Hill, priority 1988, dated 1990):

Experiments:
[1] = Toxicity of amidines in rats (standard laboratory procedure); assay type: in vivo; conditions: dose as in value; else not given in Table XIII (10 mg/kg test dose)
Pneumocystis carinii [2] = conditions: in vivo; cited from earlier work
Pneumocystis carinii [3] = assay: Treatment of Pneumocystis carinii pneumonia in Sprague-Dawley rats (extent of disease by histologic score); assay type: in vivo, male Sprague-Dawley rats; conditions: for Extent of Disease by Histologic Score: number of animals with score 2: 5-10% lung involved or small foci of infection
[4] = intramuscular and intravenous routes; cited from earlier work

| Compound | Toxicity of amidines: Effect [1] | Known effectiveness against Pneumocystis carinii pneumonia (Pneumocystis carinii [2]) | Extent of Disease by Histologic Score: number of animals with score 0.5 (Pneumocystis carinii [3]; 0.1 mg/kg, 0.5 = <10 cysts found per 2 sections) [animals] | Extent of Disease by Histologic Score: number of animals with score 1 (Pneumocystis carinii [3]; 0.1 mg/kg, 1 = scattered cysts, <5% of lung involved) [animals] | Extent of Disease by Histologic Score: number of animals with score 2 (Pneumocystis carinii [3]; 0.1 mg/kg, 2 = scattered cysts) [animals] | Extent of Disease by Histologic Score: number of animals with score 3 (Pneumocystis carinii [3]; 0.1 mg/kg, 3 = scattered cysts, 10-50% of lung involved) [animals] | Extent of Disease by Histologic Score: number of animals with score 4 (Pneumocystis carinii [3]; 0.1 mg/kg, 4 = >50% of lung involved) [animals] | Extent of Disease by Histologic Score: number of animals with score 0.5 (Pneumocystis carinii [3]; 1 mg/kg, 0.5 = <10 cysts found per 2 sections) [animals] | Extent of Disease by Histologic Score: number of animals with score 1 (Pneumocystis carinii [3]; 1 mg/kg, 1 = scattered cysts, <5% of lung involved) [animals] | Extent of Disease by Histologic Score: number of animals with score 2 (Pneumocystis carinii [3]; 1 mg/kg, 2 = scattered cysts) [animals] | Extent of Disease by Histologic Score: number of animals with score 3 (Pneumocystis carinii [3]; 1 mg/kg, 3 = scattered cysts, 10-50% of lung involved) [animals] | Extent of Disease by Histologic Score: number of animals with score 4 (Pneumocystis carinii [3]; 1 mg/kg, 4 = >50% of lung involved) [animals] | Extent of Disease by Histologic Score: number of animals with score 4 (Pneumocystis carinii [3]; 10 mg/kg i.v. daily, 14 days, 4 = >50% of lung involved with many intense areas of focal infection) [animals] | Extent of disease by histologic score (combined): number of animals in scoring group 0.5 (Pneumocystis carinii [3]; Table XII composite, 10 mg/kg, 0.5 = <10 cysts found per 2 sections) [animals] | Extent of disease by histologic score (combined): number of animals in scoring group 1 (Pneumocystis carinii [3]; Table XII composite, 10 mg/kg, 1 = scattered cysts, <5% of lung involved) [animals] | Extent of disease by histologic score (combined): number of animals in scoring group 2 (Pneumocystis carinii [3]; Table XII composite, 10 mg/kg, 2 = scattered cysts, 5-10% of lung involved) [animals] | Extent of disease by histologic score (combined): number of animals in scoring group 3 (Pneumocystis carinii [3]; Table XII composite, 10 mg/kg, 3 = scattered cysts, 10-50% of lung involved) [animals] | Extent of disease by histologic score (combined): number of animals in scoring group 4 (Pneumocystis carinii [3]; Table XII composite, 10 mg/kg, 4 = >50% of lung involved) [animals] | Side effects / toxicity in patients [4] |
| --- | --- | --- | --- | --- | --- | --- | --- | --- | --- | --- | --- | --- | --- | --- | --- | --- | --- | --- | --- |
| N=C(N)c1ccc(OCCCCCOc2ccc(C(=N)N)cc2)cc1 [Example 12, Pentamidine, reference compound] | Some hypotension, edematous tails | effective in the treatment of, or prophylaxis against Pneumocystis carinii pneumonia | 0 | 0 | 0 | 7 | 5 | 1 | 0 | 3 | 5 | 3 | 0 | 20 | 26 | 12 | 2 | 0 |  |
| N=C(N)c1ccc(OCCCCCOc2ccc(C(=N)N)cc2)cc1 [pentamidine isethionate] |  |  |  |  |  |  |  |  |  |  |  |  |  |  |  |  |  |  | Some fatalities have been attributed to severe hypotension, hypoglycemia, and cardiac arrhythmias |
